Measurements: patent publication US5872124A, “Treatment of diseases of the central nervous system using uric acid as a scavenger of peroxynitrite” (Thomas Jefferson University, priority 1996, dated 1999)
“Also recorded” adds a separate entry of the source. Where two headings read alike, the source gives them in different places.

Experiments:
[1] = system: NF-κB; test: Activation of transcription factor NF-κB in A549 cells; assay type: cell-based; conditions: 50 μg/ml, human A549 cells
[2] = system: experimental allergic encephalomyelitis (EAE), PLP immunization; test: Clinical severity of PLP-induced EAE in SWXJ-14 mice; assay type: in vivo
Protocol: FIG. 2. Effect of daily administration of c-PTIO (carboxy-PTIO) on EAE in SWXJ-14 mice. EAE was induced in SWJX-14 mice by two subcutaneous immunizations (d.0 and d.7) of […] PLP in CFA over two injection sites. Mice (N=3) were treated beginning on day 5 post-immunization with 2 mg/mouse c-PTIO […] i.p. and was continued until day 16 post-immunization (day 0 being the day of first immunization). Mean severity scores were graded as detailed in Table 1.
FIG. 4. Effect of D609 on the development of EAE in SWXJ-14 mice. SWXJ-mice were immunized with PLP as detailed for FIG. 2. Mice (n=2) were treated i.p. with 1 mg/mouse D609 from day 5 through day 14 post-immunization. Mean severity scores were graded as detailed in Table 1.
FIG. 12. Effect of the administration of various doses of uric acid on EAE in SWXJ-14 mice. EAE was induced in SWXJ-14 mice by two subcutaneous immunizations (d.0 and 7) of […] PLP in CFA over two injection sites. Mice (n=5) were treated once daily, beginning on day 5 post-immunization, with the indicated doses of uric acid. Mean severity scores were graded as detailed in Table 1.
(§1) Induction of EAE in rats by adoptive transfer of MBP-specific T cells or in SJL or SWXJ-14 mice by immunization with MBP or PLP 139-151, a peptide derived from […] [8], results in variable disease. We have scored the clinical systems of EAE as tabulated below.
(§2) Severity scores and symptoms of Experimental Allergic
(§3) 1 piloerection, tail weakness
(§4) 3 hind limb weakness/paralysis
(§5) 4 hind and forelimb paralysis
(§6) In FIG. 1, EAE was elicited in 11 week old female Lewis rats by the adoptive transfer of 20×10^6 cells of the MBP-specific line 5HGBP.G5 activated by stimulation with MBP and syngeneic APC 48 hours previously and NO levels measured 5 days after transfer. In SWXJ-14 mice, EAE was triggered by two subcutaneous immunizations (d.0 and 7) with 100 μg PLP in CFA over two injection sites, and NO levels measured 18 days later. Results expressed represent the mean values obtained from a minimum of 4 animals. Peak severity of the symptoms of EAE ranged from 2-3 for the rats and 4-5 for the mice. NO was semi-quantitated using spin trapping with DETC and EPR-spectroscopy as described previously.
(§7) Clinical symptoms manifest as an ascending paralysis approximately 13 days after immunization and the disease rapidly progresses to its fatal endpoint by day 16-20. […] NO levels in the brains and spinal cords of animals treated with a single daily dose of PTIO were semi-quantitated by spin trapping and EPR spectroscopy on day 17 after immunization, one day after treatment was terminated. […] We expect that the removal of NO by PTIO should not necessarily interfere with the induction of the response responsible for NO production and that as the supplied PTIO is used up NO levels should rapidly return to control values.
(§8) In contrast to SJL mice, SWX mice immunized with PLP undergo a progressive,often fatal form of EAE. Clinical symptoms manifest as an ascending paralysis approximately 13 days after immunization and the disease rapidly progresses to its fatal endpoint by days 16-20. […] We conclude that the amount of carboxy-PTIO we administered, especially considering the short in vivo half life of the compound, was only sufficient to delay the onset of the EAE in the SWXJ-14 mouse.
NO is not universally considered to be a molecule with significant in vivo toxicity and peroxynitrite is thought to be the more toxic molecule produced by activated inflammatory cells resulting from the interaction of NO and superoxide. We would henceforth expect that removal of NO would reduce peroxynitrite formation. To determine whether NO or peroxynitrite is more likely to be ultimately responsible for clinical disease in EAE we have performed a series of experiments using uric acid, a known scavenger of peroxynitrite, to treat EAE induced in SWXJ-14 mice by immunization with PLP.

[3] = system: A549 cells; test: Nitrite production by activated A549 cells (Griess reaction); assay type: cell-based, human; conditions: 50 μg/ml; IL-1β, γIFN, TNFα activated
Protocol: FIG. 5. […] The accumulation of nitrite over time was measured in the presence and absence of D609. Human A549 cells were activated with IL-1β (100 units/ml), γIFN (500 units/ml) and TNFα (10 ng/ml), and the accumulation of nitrite over time was measured using the Griess reaction. The concentration of nitrite was calculated using a standard solution of nitrite in culture media.
We have employed the human lung carcinoma cell line A549 (ATCC) and, as for comparison, the mouse monocyte-macrophage cell line RAW 264.7 (ATCC) as producers of NO. Treatment of RAW 264.7 cells with 1 μg/ml of LPS or A549 cells with IL-1β (100 units/ml), γIFN (500 units/ml), and TNFα (10 ng/ml) stimulates the production of NO which can be detected by the accumulation of nitrite in culture supernatants. Using these methods of stimulation, RAW cells produced up to 100 μM of nitrite during 24 hours of culture while the A549 cells generally produced roughly 10 fold less nitrite in our experiments.

[4] = system: iNOS gene; test: Transcriptional activation of the iNOS gene in RAW 264.7 cells (gel-shift assays); assay type: cell-based; conditions: 50 μg/ml, mouse RAW 264.7 cells
[5] = system: NF-κB; test: Activation of transcription factor NF-κB in RAW 264.7 cells; assay type: cell-based; conditions: 50 μg/ml, mouse RAW 264.7 cells
[6] = system: iNOS gene; test: Transcriptional activation of the iNOS gene in A549 cells (gel-shift assays); assay type: cell-based; conditions: 50 μg/ml, human A549 cells
[7] = system: phosphatidylcholine-specific phospholipase C (PC-PLC); conditions: via blocking activation of PC-PLC [16]; cited from earlier work
[8] = rats, i.v. or i.p., estimated; cited from earlier work
[9] = system: experimental allergic encephalomyelitis (EAE), immunization-elicited; test: Clinical severity of immunization-elicited EAE in SJL mice; assay type: in vivo
Description: as §1, §2, §3, §4, §5
(§9) SJL mice are immunized subcutaneously with pMBP in adjuvant to induce EAE, from which they often recover. Commencing ten days post-immunization, groups of mice (n=6) were treated once daily with 2 mg of either PTIO or carboxy-PTIO intraperitoneally and observed for clinical signs of EAE which were graded as detailed in Table 1. […] At 18 days […], NO determinations were performed in several mice from each group.

[10] = Water solubility; assay type: physicochemical
[11] = system: nitric oxide (NO); test: NO levels in spinal cord and brain of SJL mice with EAE; assay type: in vivo
Protocol: as §9

[12] = system: experimental allergic encephalomyelitis (EAE), MBP-specific T cell transfer; test: Clinical severity of adoptive transfer EAE in Lewis rats; assay type: in vivo; conditions: EAE mediated by T cell transfer
Description: as §1
______________________________________
as §2, §3, §4, §5, §6
Rats were injected i.v. with 20×10^6 MBP-specific CD4 T cells activated in vitro. Two days later the animals were treated with a single dose of either PTIO (20 mg) or a mixture of PTIO (20 mg), indomethacin (1 mg), and allopurinol (13 mg). Treatment was continued on a daily basis until day 4 and animals were sacrificed for NO measurement the following day.

[13] = mice, i.v. or i.p., estimated; cited from earlier work
[14] = system: nitric oxide (NO); test: NO levels in brain and spinal cord of SWXJ-14 mice with EAE (spin trapping with DETC, EPR); assay type: in vivo
Protocol: FIG. 3. Effect of daily administration of c-PTIO on NO levels in the brain and spinal cord of SWXJ-14 mice immunized with PLP. SWXJ-14 mice were immunized as described below for FIG. 1. Beginning 4 days post immunization, mice (n=7) were treated with 2 mg c-PTIO given i.p. until 16 days post-immunization. Mean severity scores were graded as detailed in Table 1. Mean nitric oxide levels in brain and spinal cord were semi-quantitated using spin-trapping with DETC and EPR spectroscopy at 17 days post-immunization as described elsewhere. (For brain or spinal cord results are represented as follows: Left hand column: untreated. Center column: treated with c-PTIO. Right hand column: no EAE control)
FIG. 13. Effect of the administration of uric acid on brain and spinal cord NO levels and the clinical severity of EAE in SWXJ-14 mice. SWXJ-14 mice were immunized with PLP in CFA as described for FIG. 12 and treated once daily with the indicated doses of uric acid i.p. At day 16 post-immunization the animals were euthanized and NO levels in brain and spinal cord assessed as detailed for FIG. 3. Results are for individual mice. Each central white column represents the spinal cord NO level. The black column to the left of a white column represents the clinical severity score. The cross hatched column to the right of a white column represents the brain NO level.
as §6, §7, §8
At 16 days after immunization, several mice from each group were euthanized so that NO levels in their brains and spinal cords could be measured using spin-trapping and EPR spectroscopy.

[15] = system: experimental allergic encephalomyelitis (EAE), PLP immunization; test: Survival of SWXJ-14 mice with EAE; assay type: in vivo
Protocol: FIG. 14. Comparison of the survival of SWXJ-14 mice with EAE treated with PTIO and uric acid. SWXJ-mice were immunized with PLP in CFA as described for FIG. 12 and treated once daily with a 2 mg dose of uric acid or PTIO i.p. from day 5 to day 13, followed by two daily doses on day 14 and three daily doses thereafterward.
To more directly compare the action of PTIO and uric acid in EAE we have administered each of these agents in parallel to PLP-immunized SWXJ-14 mice. In these experiments the mice were immunized with PLP and treated with increasing doses of PTIO or uric acid beginning at day 5 after immunization.

[16] = day 17 after immunization, one day after treatment ended
[17] = single daily dose of 100 mg/kg, day 17

Compound: S=C(S)OC1CC2CC1C1CCCC21 (stereo not shown) [D609, tricyclodecan-9-yl-xanthogenate]
- Activation of transcription factor NF-κB [1]: inhibits
- Onset of clinical symptoms of EAE (FIG. 4) ([2]; 1 mg daily i.p., day 5-14): delays the onset of the clinical symptoms of EAE
- Nitrite production by A549 cells (FIG. 5) [3]: completely inhibited nitrite production; also recorded: inhibits nitrite production
- Transcriptional activation of the iNOS gene [4]: inhibits the transcriptional activation of the iNOS gene
- Activation of transcription factor NF-κB [5]: inhibits
- Transcriptional activation of the iNOS gene [6]: inhibits the transcriptional activation of the iNOS gene
- Induction of iNOS [7]: inhibits the induction of iNOS by blocking the activation of phosphatidylcholine-specific phospholipase C (PC-PLC)

Compound: CC1(C)N([O])C(c2ccc(C(=O)O)cc2)=[N+]([O-])C1(C)C [carboxy-PTIO, 2-(4-carboxyphenyl)-4,4,5,5-tetramethylimidazoline-1-oxyl-3-oxide]
- Overall NO production and therapeutic effect in SWXJ-14 mice ([2]; carboxy-PTIO administration): limited NO production to the spinal cord and had a clear therapeutic effect
- Onset and severity of clinical symptoms of EAE (FIG. 9) ([2]; single daily dose of 100 mg/kg): delays the onset and reduces the severity of the clinical symptoms of EAE
- Onset and severity of clinical symptoms of EAE (FIG. 2) ([2]; two daily doses of 100 mg/kg): delays the onset and reduces the severity of the clinical symptoms of EAE
- Clinical course of EAE (FIG. 11) ([2]; two daily doses of approximately 2 mg): dramatically improves the clinical course of EAE by comparison with a single daily dose
- Biological half-life in blood [8]: less than five
- Onset and severity of EAE (FIG. 7) ([9]; 2 mg once daily i.p. from day 10 post-immunization, n=6): delayed onset of disease and somewhat lessened severity by comparison with untreated animals
- Clinical symptoms of EAE ([9]; SJL mice, i.p. administration): forestall the appearance of clinical symptoms of EAE
- Clinical severity ([9]; SJL mouse - immunization EAE, severity score 1-5, Table 2): 0.7
- Water solubility [10]: water soluble
- Brain NO increase (FIG. 8) ([11]; 2 mg once daily i.p., day 18): also inhibited
- NO levels in spinal cord (FIG. 8) ([11]; 2 mg once daily i.p., day 18): lower in the spinal cords
- Levels of NO in spinal cord ([11]; SJL mice, i.p. administration): reduce levels of NO detected in spinal cord
- NO-spinal cord ([11]; SJL mouse - immunization EAE, Table 2): 1.4 mM
- Treatment of EAE mediated by T cell transfer [12]: successfully treated
- Biological half-life in blood [13]: less than five
- NO levels in brain (FIG. 3) [14, 16]: low levels of NO in brain tissue compared to untreated PLP-immunized controls
- NO levels in spinal cord (FIG. 3) [14, 16]: somewhat less than the spinal cord NO levels detected in the surviving untreated animals
- NO induction in brain (FIG. 10) [14, 17]: prevented the induction of NO in brain
- NO levels in spinal cord (FIG. 10) [14, 17]: somewhat less than the spinal cord NO levels detected in the surviving untreated animals

Compound: Oc1nc(O)c2[nH]c(O)nc2n1 [uric acid, 2,6,8-trihydroxypurine]
- Mice remaining healthy (FIG. 12) ([2]; high dose of uric acid): The majority of the mice treated with a high dose of uric acid remained healthy throughout the length of the experiment
- Onset and severity of clinical symptoms of EAE (FIG. 12) ([2]; uric acid once daily from day 5 post-immunization): delays the onset and severity of the clinical symptoms of EAE in these animals in a dose dependent fashion
- Improvement in clinical signs of surviving mice (FIG. 14) ([15]; at termination of the experiment): a number were actually beginning to show some improvement in the clinical signs of their disease
- Mice still alive (FIG. 14) ([15]; several days after day 18, 2 mg i.p. once daily day 5-13, two doses day 14, then three daily): 80%
- NO levels in spinal cord and brain (FIG. 13) ([14]; day 16, mice that failed to show symptoms of EAE): significant levels of NO were detected in spinal cord and brain
